Assay results taken from article PMC10132233 (Journal of Enzyme Inhibition and Medicinal Chemistry, 2023).

What was measured:
[1] = tested on: 22RV1 prostate carcinoma cell line; assay: MTT cytotoxicity assay, 22RV1; assay type: cell-based; settings: Homo sapiens, 24 h
Text: (§1) Accordingly, we aimed to investigate the cytotoxic potential of this new series against prostate carcinoma cell lines. […] The potent nanomolar cell-based activity of this series of compounds over the tested prostate carcinoma cell line could be attributed to other possible targets in addition to EGFR and HER2 receptors. The presence of the 2-nitroimidazole moiety in the chemical structure of compounds 9a–h could develop possible covalent bonds between the nitroimidazole moiety and some cellular proteins.
(§2) Prostate cancer cell lines (PC3 and 22RV1) of American Type Culture Collection (ATCC) were obtained from Korean Cell Center (KCL). PC3 and 22RV1 cell lines were cultured in Roswell Park Memorial Institute Medium (RPMI) 1640 and Dulbecco’s modified Eagle’s medium (DMEM) (GenDepot, Barker, TX) supplemented with 1% penicillin–streptomycin and 10% foetal bovine serum (FBS). The cells were maintained at 37 °C in a 5% CO2 with a 95% humid atmosphere.
(§3) To further analyse the intracellular cytotoxicity effect of the as-synthesised compounds, MTT assay was performed. Moreover, the experiments were divided into subcategories. In each group, cancer cells were first seeded in 96-well plates (4 × 10^4 cells per well) and then incubated for 24 h at 37 °C in a 5% CO2-containing atmosphere. Subsequently, the medium from the culture plate was removed, and 100 µL of RPMI media containing different concentrations of compounds (0.01, 0.005, 0.0025, 0.00125, and 0.000625 µM) were then added into the cell lines in each well and incubated for 24 h in a 5% CO2 humidified incubator at 37 °C. Afterwards, MTT solution (150 μL, 1 mg/mL) was added to each well, replacing the media-containing compounds. After 4 h of incubation, the MTT reagent was removed, and 200 μL of DMSO was then added to dissolve the formazan crystals, and colour intensity was measured at a wavelength of 540 nm using a BioTek Synergy H1 instrument (BioTek, Winooski, VT). IC50 was calculated according to the equation of Boltzmann sigmoidal concentration–response curve using Graph Pad Prism 5 (La Jolla, CA).

EGFR = EGFR (Homo sapiens, UniProt P00533); assay: HotSpot kinase assay over EGFR (Reaction Biology); settings: read-out: % kinase inhibition EGFR
Sequence of EGFR (P00533 25-1210): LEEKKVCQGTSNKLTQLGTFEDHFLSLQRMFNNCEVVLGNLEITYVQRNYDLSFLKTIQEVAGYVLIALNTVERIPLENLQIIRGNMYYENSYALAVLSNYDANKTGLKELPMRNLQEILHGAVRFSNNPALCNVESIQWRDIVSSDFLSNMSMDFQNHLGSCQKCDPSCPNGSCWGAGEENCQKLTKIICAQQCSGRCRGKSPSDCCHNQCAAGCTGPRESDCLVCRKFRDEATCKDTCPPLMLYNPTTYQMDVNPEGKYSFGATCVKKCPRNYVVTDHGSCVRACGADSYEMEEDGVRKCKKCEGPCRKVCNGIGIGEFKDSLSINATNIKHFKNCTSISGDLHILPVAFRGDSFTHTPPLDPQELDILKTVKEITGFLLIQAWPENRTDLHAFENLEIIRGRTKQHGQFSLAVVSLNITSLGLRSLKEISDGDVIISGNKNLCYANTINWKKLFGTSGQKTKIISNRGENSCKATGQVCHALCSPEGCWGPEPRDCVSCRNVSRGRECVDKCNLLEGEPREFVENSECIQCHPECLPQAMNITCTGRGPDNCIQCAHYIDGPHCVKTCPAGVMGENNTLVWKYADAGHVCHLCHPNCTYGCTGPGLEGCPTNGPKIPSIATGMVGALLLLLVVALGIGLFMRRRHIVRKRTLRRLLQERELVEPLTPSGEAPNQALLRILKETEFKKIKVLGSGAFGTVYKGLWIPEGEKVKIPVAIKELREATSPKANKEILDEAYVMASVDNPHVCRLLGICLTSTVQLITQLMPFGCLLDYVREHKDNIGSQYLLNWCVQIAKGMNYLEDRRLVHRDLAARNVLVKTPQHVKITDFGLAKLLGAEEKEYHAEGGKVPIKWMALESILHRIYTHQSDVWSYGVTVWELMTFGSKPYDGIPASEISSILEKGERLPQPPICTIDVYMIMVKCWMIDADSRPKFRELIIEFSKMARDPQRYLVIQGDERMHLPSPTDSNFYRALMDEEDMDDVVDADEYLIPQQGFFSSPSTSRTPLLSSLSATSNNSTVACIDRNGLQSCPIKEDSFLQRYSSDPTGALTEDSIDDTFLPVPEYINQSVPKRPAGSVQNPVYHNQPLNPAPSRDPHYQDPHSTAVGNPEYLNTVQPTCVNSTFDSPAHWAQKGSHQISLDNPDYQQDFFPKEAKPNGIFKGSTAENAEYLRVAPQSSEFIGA

[2] = tested on: PC3 prostate carcinoma cell line; assay: MTT cytotoxicity assay, PC3; assay type: cell-based; settings: Homo sapiens, 24 h
Text: as §1, §2, §3

HER2 = HER2 (Homo sapiens, UniProt P04626); assay: HotSpot kinase assay over HER2 (Reaction Biology); settings: read-out: % kinase inhibition HER2
Sequence of HER2 (P04626 23-1255): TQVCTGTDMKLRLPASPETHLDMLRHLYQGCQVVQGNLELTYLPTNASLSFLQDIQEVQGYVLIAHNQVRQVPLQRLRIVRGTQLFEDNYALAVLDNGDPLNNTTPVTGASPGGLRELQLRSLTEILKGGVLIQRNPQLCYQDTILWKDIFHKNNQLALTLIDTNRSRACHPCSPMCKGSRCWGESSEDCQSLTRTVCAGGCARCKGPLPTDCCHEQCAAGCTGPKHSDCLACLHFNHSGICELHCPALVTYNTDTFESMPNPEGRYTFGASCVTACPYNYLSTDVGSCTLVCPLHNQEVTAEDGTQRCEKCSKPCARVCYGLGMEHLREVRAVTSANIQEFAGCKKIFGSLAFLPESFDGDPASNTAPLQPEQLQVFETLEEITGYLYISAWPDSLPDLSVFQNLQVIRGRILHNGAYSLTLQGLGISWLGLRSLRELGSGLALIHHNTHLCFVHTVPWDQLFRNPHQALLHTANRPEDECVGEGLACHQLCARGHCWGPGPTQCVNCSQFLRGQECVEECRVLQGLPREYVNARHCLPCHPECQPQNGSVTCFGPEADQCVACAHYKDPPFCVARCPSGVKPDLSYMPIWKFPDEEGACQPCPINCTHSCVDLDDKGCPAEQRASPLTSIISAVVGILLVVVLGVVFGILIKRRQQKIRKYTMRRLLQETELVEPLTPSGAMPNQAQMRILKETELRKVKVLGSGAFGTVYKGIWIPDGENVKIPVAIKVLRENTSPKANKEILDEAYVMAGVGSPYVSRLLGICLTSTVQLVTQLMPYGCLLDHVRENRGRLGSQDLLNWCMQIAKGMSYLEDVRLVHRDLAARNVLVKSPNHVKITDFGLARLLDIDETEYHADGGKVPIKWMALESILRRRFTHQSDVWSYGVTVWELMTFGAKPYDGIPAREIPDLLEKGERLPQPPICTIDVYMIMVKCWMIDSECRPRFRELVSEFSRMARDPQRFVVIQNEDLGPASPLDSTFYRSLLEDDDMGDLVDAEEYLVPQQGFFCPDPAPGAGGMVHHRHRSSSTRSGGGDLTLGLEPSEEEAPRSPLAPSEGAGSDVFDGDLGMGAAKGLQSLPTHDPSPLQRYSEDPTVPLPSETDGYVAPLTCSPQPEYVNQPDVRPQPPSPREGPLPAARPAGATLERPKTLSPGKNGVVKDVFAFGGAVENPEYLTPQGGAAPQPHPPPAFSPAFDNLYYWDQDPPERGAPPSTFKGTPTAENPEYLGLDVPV

| SMILES | inhibition at 10 µM (EGFR) [%] | inhibition at 10 µM (HER2) [%] | melting point [°C] | IC50 [1] [nM] | IC50 [2] [nM] |
| --- | --- | --- | --- | --- | --- |
| COc1cc2ncnc(Nc3ccc(Oc4ccc(Cl)c(Cl)c4)c(Cl)c3)c2cc1OCCCCn1ccnc1[N+](=O)[O-] [Compound 9b, N-(3-Chloro-4-(3,4-dichlorophenoxy)phenyl)-7-methoxy-6-(4-(2-nitro-1H-imidazol-1-yl)butoxy)quinazolin-4-amine] | 94.2 | 80.3 | 101 to 102 | 2 | 3.1 |
| COc1cc2ncnc(Nc3ccc(Oc4ccc(Cl)c(Cl)c4)c(Cl)c3)c2cc1OCCCCCn1ccnc1[N+](=O)[O-] [Compound 9c, N-(3-Chloro-4-(3,4-dichlorophenoxy)phenyl)-7-methoxy-6-((5-(2-nitro-1H-imidazol-1-yl)pentyl)oxy)quinazolin-4-amine] | 90 | 78.6 | 94 to 95 | 1.9 | 3.3 |
| COc1cc2ncnc(Nc3ccc(Oc4ccc(Cl)c(Cl)c4)c(Cl)c3)c2cc1OCCCn1ccnc1[N+](=O)[O-] [Compound 9a, N-(3-Chloro-4-(3,4-dichlorophenoxy)phenyl)-7-methoxy-6-(3-(2-nitro-1H-imidazol-1-yl)propoxy)quinazolin-4-amine] | 89 | 69.8 | 237 to 238 | 2.3 | 6.1 |

Further lines, with some results ahead:

| inhibition at 10 µM (EGFR) [%] | inhibition at 10 µM (HER2) [%] | melting point [°C] | SMILES | IC50 [1] [nM] | IC50 [2] [nM] |
| --- | --- | --- | --- | --- | --- |
| 99.2 | 96.2 | 90 to 91 | COc1cc2ncnc(Nc3ccc(Oc4cccc(C(F)(F)F)c4)c(Cl)c3)c2cc1OCCCCCn1ccnc1[N+](=O)[O-] [Compound 9g, N-(3-Chloro-4-(3-(trifluoromethyl)phenoxy)phenyl)-7-methoxy-6-((5-(2-nitro-1H-imidazol-1-yl)pentyl)oxy)quinazolin-4-amine] | 1.3 | 4.6 |
| 98.9 | 81.7 | 232 to 233 | COc1cc2ncnc(Nc3ccc(Oc4cccc(C(F)(F)F)c4)c(Cl)c3)c2cc1OCCCn1ccnc1[N+](=O)[O-] [Compound 9e, N-(3-Chloro-4-(3-(trifluoromethyl)phenoxy)phenyl)-7-methoxy-6-(3-(2-nitro-1H-imidazol-1-yl)propoxy)quinazolin-4-amine] | 0.8 | 7.3 |
| 88.9 | 72.1 | 90 to 91 | COc1cc2ncnc(Nc3ccc(Oc4ccc(Cl)c(Cl)c4)c(Cl)c3)c2cc1OCCCCCCn1ccnc1[N+](=O)[O-] [Compound 9d, N-(3-Chloro-4-(3,4-dichlorophenoxy)phenyl)-7-methoxy-6-((6-(2-nitro-1H-imidazol-1-yl)hexyl)oxy)quinazolin-4-amine] | 2.8 | 2.1 |
| 96.8 | 97 | 84 to 85 | COc1cc2ncnc(Nc3ccc(Oc4cccc(C(F)(F)F)c4)c(Cl)c3)c2cc1OCCCCCCn1ccnc1[N+](=O)[O-] [Compound 9h, N-(3-Chloro-4-(3-(trifluoromethyl)phenoxy)phenyl)-7-methoxy-6-((6-(2-nitro-1H-imidazol-1-yl)hexyl)oxy)quinazolin-4-amine] | 1.1 | 5.6 |
